From patent US10172549B2, “Methods of facilitating positioning of electrodes” (Cardionomic, Inc., priority 2016, dated 2019)

System: right ventricle contractility and left ventricle contractility
Assay: Heartbeat-by-heartbeat correlation of right and left ventricle contractility after a change, max(dP/dt) from pressure sensors as surrogate for contractility
Type: in vivo, ovine
Conditions: after injection
Description: The correlation was a heartbeat-by-heartbeat analysis. Pressure measurements, taken by a Millar catheter comprising a MEMS pressure sensor, in units of max(dP/dt) was used as a surrogate for contractility.
The first change, a dobutamine injection, provided a very high contractility increase greater than 500%. The average correlation between right ventricle contractility and left ventricle contractility was very good at 0.91, where 1.00 is a perfect correlation. Accordingly, if a subject is given a dobutamine injection, measuring changes to right ventricle contractility can provide accurate information about changes to left ventricle contractility. The first change was repeated three times.
The second change, calcium injection at 5 mL, provided a contractility increase of about 20%. […] The average correlation between right ventricle contractility and left ventricle contractility using a Millar (MEMS) sensor on a catheter was very good at 0.91. The average correlation between right ventricle contractility and left ventricle contractility using a fluid-filled lumen of a Swan-Ganz catheter in communication with an external pressure sensor was also very good at 0.87. Accordingly, under certain circumstances such as measurement of an animal (normal, non-HF ovine model) model, if a subject is given a calcium injection, measuring changes to right ventricle contractility with a MEMS sensor or a fluid filled lumen can provide accurate information about changes to left ventricle contractility.
The fourth change, neurostimulation as described herein, provided a contractility increase of about 28%. The correlation between right ventricle contractility and left ventricle contractility was very good at 0.90. Accordingly, if a subject is given neurostimulation, measuring changes to right ventricle contractility can provide accurate information about changes to left ventricle contractility. […] Thereafter, the left ventricle contractility tapered off logarithmically or exponentially, but the right ventricle contractility decreased very slowly. These differences help to show why the correlation between left ventricle contractility and right ventricle contractility are poorly correlated for calcium injections. The fourth change was not repeated.

| Compound | Contractility % Increase [%] | Contractility % Increase (listed as dobutamine injection) | Contractility % Increase (listed as calcium injection) |
| --- | --- | --- | --- |
| CC(CCc1ccc(O)cc1)NCCc1ccc(O)c(O)c1 (stereo not shown) [Dobutamine Injection, dobutamine] | >500 | greater than 500% |  |
| calcium [Calcium Injection] | ~20 |  | about 20% |
